Marks after values point to notes of the source that are not given here.
How the values were obtained:
Format in all cases: cell-based
[1] = tested on: S. pyogenes A CCUG 4208; assay: MIC on blood agar plates against S. pyogenes A CCUG 4208; parameters: key: +++: Same growth as on the control plate without any chlorhexidine and/or pentane-1,5-diol; ++: Reduced growth compared to the control; +: Very poor growth; −: No growth
Procedure: The minimal inhibitory concentration (MIC) of pentane-1,5-diol combined with chlorhexidine against S. pyogenes A CCUG 4208 was determined using bacteria concentrations of 6×10^7 (20 μl applicated onto blood agar plates). The results are depicted below in table 7 and 8.

[2] = tested on: P. acnes (CCUG 1794); assay: MIC by agar dilution assay, P. acnes
Procedure: (§1) Chlorhexidine digluconate (CHG) solution, 20% water, […]-25ML, (Sigma, St. Louis, USA) and PD, (BASF AG, Ludwigshafen, Germany) were used in the study and the following reference strains were tested; C. albicans (CCUG 5594), S. aureus (CCUG 17621) and P. acnes (CCUG 1794). Minimum inhibitory concentration of CHG and pentane-1,5-diol (PD) were determined by agar dilution assay. A series of dilutions of each compound were prepared in blood agar medium for P. acnes, and in Diagnostic Sensitivity Test (DST) agar (Oxoid, Basingstoke, UK) for C. albicans and S. aureus. Dilution series with each agent were made with freshly prepared agar at 48-50° C. Final concentration ranges were as follows: CHG solution, 0.00001 to 1% (w/v) and PD, 1-30% (v/v). The prepared plates were solidified and used immediately. For each organism an inoculum was prepared by growing organisms on blood agar. Colonies were suspended in phosphate-buffered saline (PBS) and suspensions were adjusted to approximately 6×10^6 CFU/ml for C. albicans and P. acnes and 6×10^5 CFU/mL for S. aureus. The plates were inoculated with 20 μl spots and incubated for one day for C. albicans and S. aureus and three days for P. acnes. MICs were then determined as the lowest concentration of the compound inhibiting growth of the isolates. First the MICs of CHG and PD, respectively, were determined for each micro-organism. Then, a range of combined CHG and PD concentrations were tested on each micro-organism to determine if there was synergistic activity. The definition of synergistic effect is: “An effect that is greater than the sum of the effects of the two drugs, such as the equation: 1+1 . . . ”. Each isolate was tested twice.

[3] = tested on: C. albicans (CCUG 5594); assay: MIC by agar dilution assay, C. albicans
Procedure: as §1

[4] = tested on: P. acnes; assay: MIC on blood agar plates against P. acnes; parameters: key: +++: Same growth as on the control plate without any chlorhexidine and/or pentane-1,5-diol; ++: Reduced growth compared to the control; +: Very poor growth; −: No growth
Procedure: The minimal inhibitory concentration (MIC) of pentane-1,5-diol and chlorhexidine against P. acnes was determined using bacteria concentrations of 6×10^6 (20 μl applicated onto blood agar plates). The results are depicted below in table 4 and 5.
The minimal inhibitory concentration (MIC) of pentane-1,5-diol combined with chlorhexidine against P. acnes was determined using bacteria concentrations of 6×10^6 (20 μl applicated onto blood agar plates).

[5] = tested on: S. aureus; assay: MIC on DST-agar plates against S. aureus; parameters: key: +++: Same growth as on the control plate without any chlorhexidine and/or pentane-1,5-diol; ++: Reduced growth compared to the control; +: Very poor growth; −: No growth
Procedure: The minimal inhibitory concentration (MIC) of pentane-1,5-diol and chlorhexidine against S. aureus was determined using bacteria concentrations of 6×10^6 (20 μl applicated onto DST-agar plates). The results are depicted below in table 1 and 2.
The minimal inhibitory concentration (MIC) of pentane-1,5-diol combined with chlorhexidine against S. aureus was determined using bacteria concentrations of 6×10^6 (20 μl applicated onto DST-agar plates).

[6] = tested on: S. aureus (CCUG 17621); assay: MIC by agar dilution assay, S. aureus
Procedure: as §1

[7] = P. acnes CCUG1794, agar dilution
[8] = C. albicans CCUG5594, agar dilution
[9] = S. aureus CCUG17621, agar dilution
[10] = growth grade at pentane-1,5-diol 5 wt %
[11] = growth grade at pentane-1,5-diol 6 wt %
[12] = growth grade at pentane-1,5-diol 7 wt %
[13] = growth grade at pentane-1,5-diol 10 wt %
[14] = growth grade at pentane-1,5-diol 20 wt %
[15] = growth grade at pentane-1,5-diol 30 wt %

[H]/N=C(\N/C(=N/[H])NCCCCCCNC(=N)NC(=N)Nc1ccc(Cl)cc1)Nc1ccc(Cl)cc1 [Chlorhexidine, chlorhexidine digluconate]
0.0005 w/v %: MIC alone CHG [3, 8]
−: growth grade ([1]; growth grade at chlorhexidine digluconate 0.0005 %) | growth grade ([1]; growth grade at chlorhexidine digluconate 0.001 %) | growth grade ([1]; growth grade at chlorhexidine digluconate 0.005 %) | growth grade ([1]; growth grade at chlorhexidine digluconate 0.01 %) | growth grade ([1]; growth grade at chlorhexidine digluconate 0.05 %) | growth grade ([1]; growth grade at chlorhexidine digluconate 0.1 %) | growth grade ([1]; growth grade at chlorhexidine digluconate 0.5 %) | growth grade ([4]; growth grade at chlorhexidine 0.0001 wt %) | growth grade ([4]; growth grade at chlorhexidine 0.0005 wt %) | growth grade ([4]; growth grade at chlorhexidine 0.001 wt %) | growth grade ([4]; growth grade at chlorhexidine 0.005 wt %) | growth grade ([4]; growth grade at chlorhexidine 0.01 wt %) | growth grade ([4]; growth grade at chlorhexidine 0.02 wt %) | growth grade ([4]; growth grade at chlorhexidine 0.05 wt %) | growth grade ([4]; growth grade at chlorhexidine 0.1 wt %) | growth grade ([4]; growth grade at chlorhexidine 0.5 wt %) | growth grade ([4]; growth grade at chlorhexidine 1 wt %) | bacterial growth grade ([5]; S. aureus, growth grade at chlorhexidine 0.0001 wt %) | bacterial growth grade ([5]; S. aureus, growth grade at chlorhexidine 0.0005 wt %) | bacterial growth grade ([5]; S. aureus, growth grade at chlorhexidine 0.001 wt %) | bacterial growth grade ([5]; S. aureus, growth grade at chlorhexidine 0.005 wt %) | bacterial growth grade ([5]; S. aureus, growth grade at chlorhexidine 0.01 wt %) | bacterial growth grade ([5]; S. aureus, growth grade at chlorhexidine 0.02 wt %) | bacterial growth grade ([5]; S. aureus, growth grade at chlorhexidine 0.05 wt %) | bacterial growth grade ([5]; S. aureus, growth grade at chlorhexidine 0.1 wt %) | bacterial growth grade ([5]; S. aureus, growth grade at chlorhexidine 0.5 wt %) | bacterial growth grade ([5]; S. aureus, growth grade at chlorhexidine 1 wt %)
2: Ratio (alone/combined) CHG/CHG + PD ([2]; P. acnes CCUG1794, reduction of the MIC of CHG)
1×10^−4: factor by which MIC of CHG was lower than PD ([3]; C. albicans)
+: growth grade ([1]; growth grade at chlorhexidine digluconate 0.0001 %)
10: Ratio (alone/combined) CHG/CHG + PD ([3]; C. albicans CCUG5594, reduction of the MIC of CHG) | Ratio (alone/combined) CHG/CHG + PD ([6]; S. aureus CCUG17621, reduction of the MIC of CHG)
0.0001 w/v %: MIC alone CHG [2, 7] | MIC alone CHG [6, 9]
++: growth grade ([4]; growth grade at chlorhexidine 0.00005 wt %) | bacterial growth grade ([5]; S. aureus, growth grade at chlorhexidine 0.00005 wt %)
9×10^−5: factor by which MIC of CHG was lower than PD ([2]; P. acnes)
0.00001 w/v %: MIC combined CHG ([6]; S. aureus CCUG17621, CHG in combination with PD 8 v/v %)
+++: growth grade ([1]; growth grade at chlorhexidine digluconate 0.00001 %) | growth grade ([1]; growth grade at chlorhexidine digluconate 0.00005 %) | growth grade ([4]; growth grade at chlorhexidine 0.00001 wt %) | bacterial growth grade ([5]; S. aureus, growth grade at chlorhexidine 0.00001 wt %)
0.00005 w/v %: MIC combined CHG ([2]; P. acnes CCUG1794, CHG in combination with PD 3 v/v %) | MIC combined CHG ([3]; C. albicans CCUG5594, CHG in combination with PD 3 v/v %)
6×10^−5: factor by which MIC of CHG was lower than PD ([6]; S. aureus)

OCCCCCO [Pentane-1,5-diol, pentane-1,5-diol]
+: growth grade ([1]; growth grade at 1,5-pentanediol 6 %) | growth grade [4, 10] | bacterial growth grade ([5]; growth grade at pentane-1,5-diol 8 wt %)
3 v/v %: MIC combined PD ([2]; P. acnes CCUG1794, PD in combination with CHG 0.00005 w/v %) | MIC combined PD ([3]; C. albicans CCUG5594, PD in combination with CHG 0.00005 w/v %)
++: growth grade ([1]; growth grade at 1,5-pentanediol 4 %) | growth grade ([4]; growth grade at pentane-1,5-diol 3 wt %) | bacterial growth grade [5, 11] | bacterial growth grade [5, 12]
1: Ratio (alone/combined) PD/PD + CHG ([6]; S. aureus CCUG17621, reduction of the MIC of PD)
+++: growth grade ([1]; growth grade at 1,5-pentanediol 2 %) | growth grade ([4]; growth grade at pentane-1,5-diol 1 wt %)
−: growth grade ([1]; growth grade at 1,5-pentanediol 7 %) | growth grade ([1]; growth grade at 1,5-pentanediol 8 %) | growth grade ([1]; growth grade at 1,5-pentanediol 9 %) | growth grade ([1]; growth grade at 1,5-pentanediol 10 %) | growth grade ([1]; growth grade at 1,5-pentanediol 15 %) | growth grade [4, 11] | growth grade [4, 12] | growth grade [4, 13] | growth grade [4, 14] | growth grade [4, 15] | bacterial growth grade ([5]; growth grade at pentane-1,5-diol 9 wt %) | bacterial growth grade [5, 13] | bacterial growth grade [5, 14] | bacterial growth grade [5, 15]
5 v/v %: MIC alone PD [3, 8]
+++^a: bacterial growth grade [5, 10]
2: Ratio (alone/combined) PD/PD + CHG ([2]; P. acnes CCUG1794, reduction of the MIC of PD) | Ratio (alone/combined) PD/PD + CHG ([3]; C. albicans CCUG5594, reduction of the MIC of PD)
9 v/v %: MIC alone PD [6, 9]
6 v/v %: MIC alone PD [2, 7]
8 v/v %: MIC combined PD ([6]; S. aureus CCUG17621, PD in combination with CHG 0.00001 w/v %)
